{"source": "paper PMC11172311", "about": "“Structural and Interactional Analysis of the Flavonoid Pathway Proteins: Chalcone Synthase, Chalcone Isomerase and Chalcone Isomerase-like Protein” (International Journal of Molecular Sciences, 2024)", "key": {"[1]": {"molecular_target": "T1, PvCHS (chalcone synthase) (Panicum virgatum, UniProt A0A8T0PQ54)", "T1 construct": "gene PVAP13_8KG261900; full-length with N-terminal His6-tag; residues 8 to 395 of 402 resolved", "T1 sequence (A0A8T0PQ54 1-402)": "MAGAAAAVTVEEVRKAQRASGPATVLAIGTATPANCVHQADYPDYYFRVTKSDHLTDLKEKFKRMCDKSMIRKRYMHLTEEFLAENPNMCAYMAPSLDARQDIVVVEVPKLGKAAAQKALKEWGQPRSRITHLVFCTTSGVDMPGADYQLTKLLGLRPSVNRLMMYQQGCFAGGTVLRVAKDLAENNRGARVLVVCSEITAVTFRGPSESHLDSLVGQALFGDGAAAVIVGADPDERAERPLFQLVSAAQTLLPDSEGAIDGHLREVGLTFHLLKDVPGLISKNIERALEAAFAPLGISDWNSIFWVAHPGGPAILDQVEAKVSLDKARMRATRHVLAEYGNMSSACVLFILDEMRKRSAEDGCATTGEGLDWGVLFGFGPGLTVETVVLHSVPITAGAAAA", "experiment": "X-ray crystal structure (co-crystallization)", "format": "binding"}, "[2]": {"molecular_target": "T2, PvCHI (chalcone isomerase) (Panicum virgatum, UniProt A0A8T0N7A2)", "T2 construct": "gene PVAP13_9KG390224; recombinant, N-terminal 6×-His tag", "T2 sequence (A0A8T0N7A2 1-235)": "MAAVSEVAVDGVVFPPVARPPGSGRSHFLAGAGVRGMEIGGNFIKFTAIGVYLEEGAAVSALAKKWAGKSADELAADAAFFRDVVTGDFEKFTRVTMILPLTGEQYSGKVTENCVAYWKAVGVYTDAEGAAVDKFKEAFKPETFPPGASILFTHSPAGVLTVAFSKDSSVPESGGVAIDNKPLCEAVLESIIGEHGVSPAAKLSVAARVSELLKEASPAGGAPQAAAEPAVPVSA", "experiment": "steady-state kinetics at […] nm; substrate inhibition (Km […], KI […])", "format": "biochemical"}, "[3]": {"molecular_target": "T3, SbCHI (chalcone isomerase, Bmr30) (Sorghum bicolor, UniProt C5WV22)", "T3 construct": "gene SORBI_3001G035600; recombinant SbCHI", "T3 sequence (C5WV22 1-231)": "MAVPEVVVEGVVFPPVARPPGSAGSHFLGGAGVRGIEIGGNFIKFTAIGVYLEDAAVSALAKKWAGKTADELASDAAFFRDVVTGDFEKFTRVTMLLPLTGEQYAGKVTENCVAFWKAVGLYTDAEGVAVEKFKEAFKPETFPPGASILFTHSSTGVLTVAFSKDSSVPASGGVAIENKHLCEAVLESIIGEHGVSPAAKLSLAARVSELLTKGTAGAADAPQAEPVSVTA", "experiment": "X-ray crystal structure (binary complex)", "format": "binding"}, "[4]": {"molecular_target": "T2, PvCHI (chalcone isomerase)", "experiment": "steady-state kinetics with naringenin chalcone as substrate, […] liquiritigenin", "format": "biochemical"}, "[5]": {"molecular_target": "T1, PvCHS (chalcone synthase)", "experiment": "X-ray crystal structure (co-crystallization, ternary complex with CoA)", "format": "binding"}}}
{"smiles": "CC(C)(COP(=O)(O)OP(=O)(O)OC[C@H]1O[C@@H](n2cnc3c(N)ncnc32)[C@H](O)[C@@H]1OP(=O)(O)O)[C@@H](O)C(=O)NCCC(=O)NCCS", "note": "[CoA]", "values": [{"measurement": "X-ray crystal structure (co-crystallization)", "setting": "[1]", "result": "The electron density corresponding to an extended CoA molecule (Figure 2B) along a continuous tunnel"}]}
{"smiles": "O=C(/C=C/c1ccc(O)cc1)c1ccc(O)cc1O", "note": "[isoliquiritigenin]", "values": [{"measurement": "Ki", "setting": "[2]", "result": 11.2, "unit": "µM"}]}
{"smiles": "O=C1C[C@@H](c2ccc(O)cc2)Oc2cc(O)ccc21", "note": "[liquiritigenin]", "values": [{"measurement": "X-ray crystal structure (binary complex)", "setting": "[3]", "result": "the electron density corresponding to liquiritigenin that had been added to the crystallization buffer was clearly identified"}, {"measurement": "Ki", "setting": "[4]", "result": 0.285, "unit": "µM"}]}
{"smiles": "O=C1C[C@@H](c2ccc(O)cc2)Oc2cc(O)cc(O)c21", "note": "[naringenin]", "values": [{"measurement": "X-ray crystal structure (co-crystallization, ternary complex with CoA)", "setting": "[5]", "result": "one naringenin molecule was visible in the concave pocket established at the interface between two PvCHS dimers"}]}
